Data as given in patent US10870647B2, “Imidazopyridine derivative, method for preparing same, and pharmaceutical composition containing same as active ingredient for preventing or treating cancer” (DAEGU-GYEONGBUK MEDICAL INNOVATION FOUNDATION, priority 2016, dated 2020).
Where two headings read alike, the source gives them in different places.

Columns and labels:
Test in all cases: Kinase selectivity, scanMAX Kinase assay panel (DiscoverX), % control at 1 uM
Format in all cases: binding
[1] = target: T1, scanMAX Kinase assay panel (Homo sapiens, UniProt P21127); conditions: CDC2L1; 1 uM; read-out: Percent Control (%)
T1 construct: purchased DiscoverX
T1 sequence (P21127 whole entry): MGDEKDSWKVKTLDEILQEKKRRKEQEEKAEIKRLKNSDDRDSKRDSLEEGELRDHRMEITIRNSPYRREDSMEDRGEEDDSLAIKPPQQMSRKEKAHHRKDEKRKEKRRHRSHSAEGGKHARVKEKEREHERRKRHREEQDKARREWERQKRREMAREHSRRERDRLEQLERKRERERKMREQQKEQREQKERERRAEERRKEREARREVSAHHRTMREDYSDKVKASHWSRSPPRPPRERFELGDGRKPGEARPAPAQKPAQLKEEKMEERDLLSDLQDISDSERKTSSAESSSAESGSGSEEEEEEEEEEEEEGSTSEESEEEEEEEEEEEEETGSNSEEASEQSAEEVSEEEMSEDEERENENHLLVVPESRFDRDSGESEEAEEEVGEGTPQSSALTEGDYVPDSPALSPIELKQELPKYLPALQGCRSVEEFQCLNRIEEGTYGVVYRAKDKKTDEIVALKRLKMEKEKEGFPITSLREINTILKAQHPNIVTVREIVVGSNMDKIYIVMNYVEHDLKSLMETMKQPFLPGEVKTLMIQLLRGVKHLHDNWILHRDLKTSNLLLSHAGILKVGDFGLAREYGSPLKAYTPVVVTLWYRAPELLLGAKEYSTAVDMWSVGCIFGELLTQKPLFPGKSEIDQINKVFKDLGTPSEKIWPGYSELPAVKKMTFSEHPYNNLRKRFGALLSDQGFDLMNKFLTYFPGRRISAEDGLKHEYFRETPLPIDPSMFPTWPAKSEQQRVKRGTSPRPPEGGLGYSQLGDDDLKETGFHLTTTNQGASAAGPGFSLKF
Procedure, shortened: (§1)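 Compounds were tested at 1 uM in DMSO against each enzyme in the panel. Percent control was calculated as (compound − positive control)/(negative control − positive control) × 100, and a compound was scored active on a kinase when this value fell below 35.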

[2] = target: T2, scanMAX Kinase assay panel (Homo sapiens, UniProt Q13976); conditions: PRKG1; 1 uM; read-out: Percent Control (%)
T2 construct: purchased DiscoverX
T2 sequence (Q13976 1-671): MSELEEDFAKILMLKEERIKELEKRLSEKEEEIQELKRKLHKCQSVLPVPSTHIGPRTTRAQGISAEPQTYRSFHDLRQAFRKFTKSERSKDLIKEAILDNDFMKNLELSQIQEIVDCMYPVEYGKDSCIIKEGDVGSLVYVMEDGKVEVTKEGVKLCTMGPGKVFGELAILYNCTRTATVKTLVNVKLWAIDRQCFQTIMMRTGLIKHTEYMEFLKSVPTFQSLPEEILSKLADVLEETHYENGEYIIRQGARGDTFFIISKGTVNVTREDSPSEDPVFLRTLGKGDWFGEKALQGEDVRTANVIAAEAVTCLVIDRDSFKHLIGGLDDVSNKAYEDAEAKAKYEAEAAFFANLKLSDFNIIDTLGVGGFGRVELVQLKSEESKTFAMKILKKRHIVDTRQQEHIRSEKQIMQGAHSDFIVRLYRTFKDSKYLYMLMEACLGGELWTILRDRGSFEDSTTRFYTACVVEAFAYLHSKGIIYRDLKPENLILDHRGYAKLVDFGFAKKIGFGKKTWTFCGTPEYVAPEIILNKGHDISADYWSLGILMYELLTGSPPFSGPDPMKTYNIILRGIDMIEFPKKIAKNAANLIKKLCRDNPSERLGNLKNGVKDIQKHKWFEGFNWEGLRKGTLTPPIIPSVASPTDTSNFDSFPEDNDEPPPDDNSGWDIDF
Procedure, shortened: as §1

[3] = target: T3, scanMAX Kinase assay panel (Homo sapiens, UniProt P0C264); conditions: SgK110; 1 uM; read-out: Percent Control (%)
T3 construct: purchased DiscoverX
T3 sequence (P0C264 1-359): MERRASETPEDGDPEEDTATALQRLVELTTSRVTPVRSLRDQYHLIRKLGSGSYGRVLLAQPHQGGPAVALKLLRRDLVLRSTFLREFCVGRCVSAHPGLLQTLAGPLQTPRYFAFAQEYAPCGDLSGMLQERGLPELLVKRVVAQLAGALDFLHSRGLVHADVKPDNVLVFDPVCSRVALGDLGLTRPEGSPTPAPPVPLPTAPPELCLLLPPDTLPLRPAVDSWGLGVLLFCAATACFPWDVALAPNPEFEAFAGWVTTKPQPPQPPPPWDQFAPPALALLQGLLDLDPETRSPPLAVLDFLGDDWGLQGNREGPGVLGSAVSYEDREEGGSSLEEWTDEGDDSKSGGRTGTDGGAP
Procedure, shortened: as §1

[4] = target: T4, scanMAX Kinase assay panel (Homo sapiens, UniProt Q9UK32); conditions: 1 uM, read-out: Percent Control (%)
T4 construct: purchased DiscoverX
T4 sequence (Q9UK32 whole entry): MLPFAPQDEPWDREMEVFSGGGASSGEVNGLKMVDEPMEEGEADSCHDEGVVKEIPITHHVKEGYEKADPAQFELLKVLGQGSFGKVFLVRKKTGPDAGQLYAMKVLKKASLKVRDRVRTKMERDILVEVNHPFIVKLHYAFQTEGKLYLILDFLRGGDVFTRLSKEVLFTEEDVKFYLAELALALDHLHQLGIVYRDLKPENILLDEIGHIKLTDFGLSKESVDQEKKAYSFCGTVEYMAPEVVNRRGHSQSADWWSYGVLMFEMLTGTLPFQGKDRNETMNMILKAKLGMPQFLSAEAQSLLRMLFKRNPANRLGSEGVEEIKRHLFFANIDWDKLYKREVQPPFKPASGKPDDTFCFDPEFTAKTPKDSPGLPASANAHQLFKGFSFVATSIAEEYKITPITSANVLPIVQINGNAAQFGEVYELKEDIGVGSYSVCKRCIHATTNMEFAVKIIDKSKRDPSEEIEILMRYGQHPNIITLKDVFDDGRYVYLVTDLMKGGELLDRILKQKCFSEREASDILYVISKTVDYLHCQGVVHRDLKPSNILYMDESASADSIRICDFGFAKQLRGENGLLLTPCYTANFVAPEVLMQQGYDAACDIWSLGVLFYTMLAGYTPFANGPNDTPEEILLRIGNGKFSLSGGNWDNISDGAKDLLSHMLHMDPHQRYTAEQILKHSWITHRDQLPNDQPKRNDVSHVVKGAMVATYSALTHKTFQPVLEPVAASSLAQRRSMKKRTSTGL
Procedure, shortened: as §1

[5] = target: T5, scanMAX Kinase assay panel (Homo sapiens, UniProt P42681); conditions: TXK; 1 uM; read-out: Percent Control (%)
T5 construct: purchased DiscoverX
T5 sequence (P42681 1-527): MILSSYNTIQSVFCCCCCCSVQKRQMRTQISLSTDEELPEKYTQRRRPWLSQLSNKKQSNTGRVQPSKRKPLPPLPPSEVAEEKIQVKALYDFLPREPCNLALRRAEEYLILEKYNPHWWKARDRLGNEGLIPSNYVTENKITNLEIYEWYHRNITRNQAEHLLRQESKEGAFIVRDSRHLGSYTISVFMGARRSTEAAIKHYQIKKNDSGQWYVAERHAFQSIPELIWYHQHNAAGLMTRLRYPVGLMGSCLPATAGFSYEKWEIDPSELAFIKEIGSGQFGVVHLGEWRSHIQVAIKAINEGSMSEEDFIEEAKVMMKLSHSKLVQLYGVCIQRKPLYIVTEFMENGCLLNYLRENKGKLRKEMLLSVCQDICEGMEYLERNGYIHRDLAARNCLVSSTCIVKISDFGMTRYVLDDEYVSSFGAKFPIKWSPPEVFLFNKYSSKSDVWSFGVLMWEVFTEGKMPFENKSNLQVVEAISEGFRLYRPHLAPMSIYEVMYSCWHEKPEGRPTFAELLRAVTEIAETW
Procedure, shortened: as §1

[6] = target: T6, scanMAX Kinase assay panel (Homo sapiens, UniProt O75914); conditions: PAK3; 1 uM; read-out: Percent Control (%)
T6 construct: purchased DiscoverX
T6 sequence (O75914 whole entry): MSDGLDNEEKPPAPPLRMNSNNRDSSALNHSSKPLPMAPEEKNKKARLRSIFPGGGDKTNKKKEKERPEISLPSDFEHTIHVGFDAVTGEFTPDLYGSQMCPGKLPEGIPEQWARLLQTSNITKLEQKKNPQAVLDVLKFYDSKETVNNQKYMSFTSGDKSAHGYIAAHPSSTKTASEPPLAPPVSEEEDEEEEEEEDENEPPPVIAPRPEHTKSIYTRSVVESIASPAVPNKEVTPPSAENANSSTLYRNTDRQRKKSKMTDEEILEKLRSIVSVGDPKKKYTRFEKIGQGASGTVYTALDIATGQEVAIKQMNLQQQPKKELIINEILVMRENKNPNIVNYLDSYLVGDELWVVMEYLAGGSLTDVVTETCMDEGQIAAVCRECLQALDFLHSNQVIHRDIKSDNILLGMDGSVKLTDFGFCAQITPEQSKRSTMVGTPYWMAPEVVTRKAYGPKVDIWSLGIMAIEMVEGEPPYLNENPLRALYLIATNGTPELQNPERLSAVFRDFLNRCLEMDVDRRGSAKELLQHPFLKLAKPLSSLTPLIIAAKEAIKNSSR
Procedure, shortened: as §1

[7] = target: T7, scanMAX Kinase assay panel (Homo sapiens, UniProt P15735); conditions: PHKG2; 1 uM; read-out: Percent Control (%)
T7 construct: purchased DiscoverX
T7 sequence (P15735 1-406): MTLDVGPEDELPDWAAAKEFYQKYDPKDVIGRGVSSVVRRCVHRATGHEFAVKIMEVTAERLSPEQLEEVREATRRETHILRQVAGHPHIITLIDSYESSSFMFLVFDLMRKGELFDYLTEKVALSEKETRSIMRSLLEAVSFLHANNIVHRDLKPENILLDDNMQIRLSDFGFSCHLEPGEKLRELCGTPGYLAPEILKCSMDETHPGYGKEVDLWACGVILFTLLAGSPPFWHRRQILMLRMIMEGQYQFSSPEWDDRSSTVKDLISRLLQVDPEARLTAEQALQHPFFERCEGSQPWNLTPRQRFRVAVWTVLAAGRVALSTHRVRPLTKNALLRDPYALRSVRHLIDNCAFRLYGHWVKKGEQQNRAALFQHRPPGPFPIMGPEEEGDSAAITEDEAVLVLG
Procedure, shortened: as §1

Compound	remaining binding at 1 µM [1]	remaining binding at 1 µM [2]	remaining binding at 1 µM [3]	remaining binding at 1 µM ([4]; RSK4 (Kin.Dom.1-N-terminal))	remaining binding at 1 µM ([4]; RSK4 (Kin.Dom.2-C-terminal))	remaining binding at 1 µM [5]	remaining binding at 1 µM [6]	remaining binding at 1 µM [7]
Cc1ccc(C(=O)Nc2ccc(CN3CCN(C)CC3)c(C(F)(F)F)c2)cc1C#Cc1cnc2c(Nc3cnn(C)c3)cccn12 [Example 1, 4-methyl-3-((8-((1-methyl-1H-pyrazol-4-yl)amino)imidazo[1,2-a]pyridin-3-yl)ethynyl)-N-(4-((4-methylpiperazin-1-yl)methyl)-3-(trifluoromethyl)phenyl)benzamide]	20%	94%	95%	81%	59%	1%	85%	72%
Cc1cn(-c2cc(NC(=O)c3ccc(C)c(C#Cc4cnc5c(Nc6cnn(C)c6)cccn45)c3)cc(C(F)(F)F)c2)cn1 [Example 12, 4-methyl-N-(3-(4-methyl-1H-imidazol-1-yl)-5-(trifluoromethyl)phenyl)-3-((8-((1-methyl-1H-pyrazol-4-yl)amino)imidazo[1,2-a]pyridin-3-yl)ethynyl)benzamide]	80%	86%	81%	93%	68%	3%	95%	89%
Cc1ccc(NC(=O)C2(C(=O)Nc3ccc(F)cc3)CC2)cc1C#Cc1cnc2c(Nc3cnn(C(C)C)c3)cccn12 [Example 78]	100%	100%	100%	93%	98%	91%	83%	100%
